Measured values reported in US20230089557A1, “METHODS OF TREATING DLBCL USING BTK INHIBITORS AND COMBINATIONS THEREOF” (BEIGENE SWITZERLAND GMBH, priority 2020, published 2023).

Assays:
R/R non-GCB DLBCL = assay: Four Compound 1 studies pooled (monotherapy and combination), response by BCL2/MYC expression; type: in vivo, human; conditions: for BOR / BOR (responders/patients) / OS / PFS: mono- and combination therapies pooled; for overall survival / progression-free survival / ORR / ORR (responders/patients): two monotherapies and two combination therapies
Procedure: A total of 121 patients with R/R non-GCB DLBCL were recruited in four Compound 1 treatment studies that were conducted at a similar time period. Two of the four studies were Compound 1 monotherapy (n=79) and two were Compound 1 combined with an anti-CD20 antibody therapy (n=42). Similar inclusion and exclusion criteria and response evaluation criteria were used across all studies. Fifty-six non-GCB patients were further subtyped by gene expression profiling (GEP) using the HTG EdgeSeq DLBCL Cell of Origin Assay. The expression of approximately 90 lymphoma-associated genes from the HTG GEP assay were analyzed by R package limma for correlation with response to Compound 1 treatment. Seventy-seven patient samples were tested by next-generation sequencing (NGS) with a panel of genes. Chi-square test was used to evaluate the correlation between mutations and the objective response rate (ORR).
Monotherapy schedule 1: Compound 1 was administered orally every day at 160 mg twice daily (BID) in 28-day cycles in patients with R/R non-GCB DLBCL
Monotherapy schedule 2: Compound 1 was administered orally every day in each cycle at 160 mg BID in 28-day cycles in patients with R/R non-GCB DLBCL.
Combination therapy schedule 1: Compound 1 was administered orally every day in each cycle at 160 mg BID in 28-day cycles, in combination with obinutuzumab, in patients with R/R non-GCB DLBCL. Obinutuzumab was administered for up to 6 cycles consistent with the U.S. label regimen (100 mg at Day 1 Cycle 1, 1000 mg at Day 8 and Day 15, 900 mg at Day 2 Cycle 1 followed by 1000 mg on day one of cycles 2-6).
Combination therapy schedule 2: Compound 1 was administrated orally every day in each cycle at 160 mg BID in 28-day cycles, in combination with rituximab, in patients with R/R non-GCB DLBCL. And, rituximab was administered at 375 mg/m2 intravenously on Cycle 1 Days 1, 8, 15, 22, and on Day 1 of Cycles 4, 6, 8, 10. Compound 1 was administered at least 30 minutes prior to the initiation of the rituximab infusion.
A total of 121 patients with non-GCB DLBCL were included for response evaluation. 79 patients were subjected to Compound 1 monotherapies (Monotherapy Schedule 1 or 2), and 42 patients were subjected to Compound 1 plus anti-CD20 antibody Combination therapy (Combination therapy schedule 1 or 2).
56 non-GCB patients were further subtyped by gene expression profiling (GEP) using the HTG EdgeSeq DLBCL Cell of Origin Assay. The expression of approximately 90 lymphoma-associated genes from the HTG GEP assay were analyzed by R package limma for correlation with response to zanubrutinib treatment.

[1] = test system: DLBCL patient-derived xenografted (PDX) models; assay: Compound 1 efficacy (TGI) in DLBCL PDX models, GCB vs non-GCB; type: in vivo, mice; conditions: p.o. 7.5 mg/kg BID
Text: DLBCL patient-derived xenografted (PDX) models were established in immunodeficient NCG (NOD-Prkdcem26Cd52Il2rgem26Cd22/NjuCrl) mice. These models were classified into GCB and non-GCB subgroups based on immunohistochemistry (IHC) staining using Hans algorithm (Hans, C. P., et al., Blood, 2004. 103 (1): p. 275-282). For efficacy studies, tumor tissues were inoculated subcutaneously into NCG mice. When tumors reached 100-200 mm^3, mice were randomized into each group with 7-10 mice/group based on tumor volume. Compound 1 was formulated with 0.5% methyl cellulose as vehicle and treatment was started on the day of randomized grouping. Compound 1 was administrated p.o., 7.5 mg/(kg body weight), BID. Tumor volumes were measured twice weekly in two dimensions using a caliper, and the volume were expressed in mm^3 using the formula:
V=0.5(a×b^2) where a and b are the long and short diameters of the tumor, respectively.
Tumor growth inhibition (TGI) was calculated using the following formula:
% TGI=100×[1−(treatmentvt−treatmentv0)/(vehiclevt−Vehiclev0)]
Treatmentvt=tumor volume of treatment group at time t.
treatmentv0=tumor volume of treatment group at time of treatment started.
Vehiclevt=tumor volume of vehicle group at time t.
Vehiclev0=tumor volume of vehicle group at time of treatment started.
P value was calculated using two tails t test.

[2] = MYC and BCL2 double expressor (DE) patients

With `C=CC(=O)N1CCC([C@@H]2CCNc3c(C(N)=O)c(-c4ccc(Oc5ccccc5)cc4)nn32)CC1` [Compound 1, (S)-7-(1-acryloylpiperidin-4-yl)-2-(4-phenoxyphenyl)-4,5,6,7-tetra-hydropyrazolo[1,5-a]pyrimidine-3-carboxamide] the BOR (R/R non-GCB DLBCL; BCL2-high patients) was 57%, the “BOR (responders/patients)” value (R/R non-GCB DLBCL; BCL2-high patients) was 16/28 and the OS (R/R non-GCB DLBCL; BCL2-high patients) was 10 m. For the same compound, the PFS (R/R non-GCB DLBCL; BCL2-high patients) was 5.3 m, the BOR (R/R non-GCB DLBCL; BCL2-low patients) was 21% and the “BOR (responders/patients)” value (R/R non-GCB DLBCL; BCL2-low patients) was 6/28. The OS (R/R non-GCB DLBCL; BCL2-low patients) was 6 m, the PFS (R/R non-GCB DLBCL; BCL2-low patients) was 2.8 m and the overall survival (R/R non-GCB DLBCL; DE patients) was 10 months. For the same compound, the progression-free survival (R/R non-GCB DLBCL; DE patients) was 5.4 months, the ORR (R/R non-GCB DLBCL; [2]) was 61% and the “ORR (responders/patients)” value (R/R non-GCB DLBCL; [2]) was 11/18. For the same compound, the BOR (R/R non-GCB DLBCL; MYC-high patients) was 46%, the “BOR (responders/patients)” value (R/R non-GCB DLBCL; MYC-high patients) was 13/28 and the OS (R/R non-GCB DLBCL; MYC-high patients) was 10 m. For the same compound, the PFS (R/R non-GCB DLBCL; MYC-high patients) was 5.4 m, the BOR (R/R non-GCB DLBCL; MYC-low patients) was 32% and the “BOR (responders/patients)” value (R/R non-GCB DLBCL; MYC-low patients) was 9/28. It also gave an OS (R/R non-GCB DLBCL; MYC-low patients) of 7 m, a PFS (R/R non-GCB DLBCL; MYC-low patients) of 2.9 m and an ORR (R/R non-GCB DLBCL; non-DE patients) of 29%. The “ORR (responders/patients)” value (R/R non-GCB DLBCL; non-DE patients) was 11/38, the overall survival (R/R non-GCB DLBCL; non-DE patients) was 7 months and the progression-free survival (R/R non-GCB DLBCL; non-DE patients) was 3.6 months. For the same compound, the “TGI (mean±SD)” value ([1]; GCB subtype PDX models) was 25.5±11.96% and the “TGI (mean±SD)” value ([1]; non-GCB DLBCL PDX models) was 63.60±42.92%.
